Patent US20230212246A1, “TGF-B AS A THERAPEUTIC TARGET FOR INTRACRANIAL ANEURYSM” (THE BOARD OF REGENTS OF THE UNIVERSITY OF TEXAS SYSTEM, priority 2022, published 2023)

How the values were obtained:
p-Smad2 [1] = assay: Activin treatment time course of p-Smad2 in HBMEC; type: cell-based, human; conditions: HBMEC cells, FIG. 6a
Method: (§1) Cells were lysed in 1% Triton lysis buffer and sonicated briefly before centrifuged at 18506 g for 30 min at 4° C. Total cell lysates were added by 2X SDS sample buffer and then subjected to discontinuous SDS-PAGE analysis. Proteins were transferred to nitro-cellulose membranes using a Bio-Rad (Hercules, Calif.) mini transfer apparatus followed by blocking with 5% nonfat milk. Primary antibodies and secondary antibodies were used usually at 1:1000 and 1:10000 dilutions respectively before using an Odyssey system to detect the fluorescence signal.
(§2) FIG. 3 is a drawing depicting a representative model of the TGFβ pathway. […] As depicted in FIG. 3, it is possible to monitor the phosphorylation level of Smad2 or Samd3 as a reporter for TGFβ signaling activity.
To evaluate the specificity of the requirement for THSD1 for TGFβ signaling in endothelial cells we also tested Activin treatment. […] FIG. 7 is a schematic illustrating that THSD1 has a thrombospondin domain (TSP1) that interacts with mature TGFβ ligand.

p-Smad2 [2] = assay: TGFβ1 time course of p-Smad2 (Western blot) in HEK293T cells; type: cell-based; conditions: HEK293T cells treated with TGFβ1 at different time points, FIG. 4a
Method: HEK293T cells were maintained in DMEM medium (Corning, 10-013-CV) containing 10% fetal bovine serum (Invitrogen, 10082147), 100 IU penicillin, and 100 μg/ml streptomycin. Transfections of small interfering RNAs and plasmid DNA were performed using lipofectamine 2000 (Life Technologies, 11668027) according to the manufacturer's instructions. Alternatively, for cells such as endothelial cells that are hard to transfect, we will utilize lentiviral system to generate stable cell lines.
as §1
FIG. 3 is a drawing depicting a representative model of the TGFβ pathway. […] As depicted in FIG. 3, it is possible to monitor the phosphorylation level of Smad2 or Samd3 as a reporter for TGFβ signaling activity. […]

p-Smad2 [3] = assay: TGFβ treatment time course of p-Smad2 in HBMEC; type: cell-based, human; conditions: FIG. 5a
Method: as §1, §2
(§3) To further investigate a potential role for the TGFβ Signaling pathway in the pathology of aneurysms, specifically IA, we also tested TGFβ treatment in different endothelial cells including HBMEC and HUVEC. HBMEC is a primary brain endothelial cells and HUVEC is primary umbilical vein endothelial cells. […] THSD1 knockdown can block TGFβ signaling.

p-Smad2 [4] = assay: TGFβ treatment time course of p-Smad2 in HUVEC; type: cell-based, human; conditions: HUVEC (cell line not restated), FIG. 5c
Method: as §1, §2, §3

Activin
time at which p-smad2 reaches the highest level (p-Smad2 [1]): around 40 mins

TGFβ1: TGFβ ligand; polypeptide used to treat cells and induce Smad2 phosphorylation
time at which p-Smad2 reaches plateau (p-Smad2 [2]): 60 min
time at which p-Smad2 reaches the maximum level (p-Smad2 [3]): around 40 mins
time at which p-smad2 reaches the highest level (p-Smad2 [4]): around 40 mins
